In patent US20240174727A1, “LONG-ACTING NATRIURETIC PEPTIDES AND USES THEREOF” (Eli Lilly and Company, priority 2022, published 2024):
Read-outs that look alike come from different tables or passages of the source. Numbered stars: 1 amine (or outer) side, 2 acyl side, 3 side chain; on linkers, the order of the positions; unused ones are H or OH. Bridge positions count the residues as written; N and C are the ends. Square brackets hold non-standard residues; d marks the D form. * marks the point of attachment. C20 diacid = O=C(O)CCCCCCCCCCCCCCCCCCC(=O)*; γGlu = O=C(O)[C@H](CCC(=O)[*:2])N[*:1]; 4Pal = N[C@@H](Cc1ccncc1)C(=O)O; Aib = CC(C)(N)C(=O)O; CH2 = C([*:1])[*:2]

Legend:
human NPRA = biological target: T1, human NPRA (Homo sapiens, UniProt P16066); assay: Human NPRA cGMP activity assay (HTRF) in HEK293 cells overexpressing NPRA; format: cell-based
T1 construct: Full-Length cDNA Cloning and Generation of Cell Lines Overexpressing Natriuretic Peptide Receptors (NPRs); expressed in transfected cells; host or cells: Jump-in T-Rex HEK293 cells, pJTI R4 CMV-TO MCS pA vector, tetracycline induction
T1 sequence (P16066 33-1061): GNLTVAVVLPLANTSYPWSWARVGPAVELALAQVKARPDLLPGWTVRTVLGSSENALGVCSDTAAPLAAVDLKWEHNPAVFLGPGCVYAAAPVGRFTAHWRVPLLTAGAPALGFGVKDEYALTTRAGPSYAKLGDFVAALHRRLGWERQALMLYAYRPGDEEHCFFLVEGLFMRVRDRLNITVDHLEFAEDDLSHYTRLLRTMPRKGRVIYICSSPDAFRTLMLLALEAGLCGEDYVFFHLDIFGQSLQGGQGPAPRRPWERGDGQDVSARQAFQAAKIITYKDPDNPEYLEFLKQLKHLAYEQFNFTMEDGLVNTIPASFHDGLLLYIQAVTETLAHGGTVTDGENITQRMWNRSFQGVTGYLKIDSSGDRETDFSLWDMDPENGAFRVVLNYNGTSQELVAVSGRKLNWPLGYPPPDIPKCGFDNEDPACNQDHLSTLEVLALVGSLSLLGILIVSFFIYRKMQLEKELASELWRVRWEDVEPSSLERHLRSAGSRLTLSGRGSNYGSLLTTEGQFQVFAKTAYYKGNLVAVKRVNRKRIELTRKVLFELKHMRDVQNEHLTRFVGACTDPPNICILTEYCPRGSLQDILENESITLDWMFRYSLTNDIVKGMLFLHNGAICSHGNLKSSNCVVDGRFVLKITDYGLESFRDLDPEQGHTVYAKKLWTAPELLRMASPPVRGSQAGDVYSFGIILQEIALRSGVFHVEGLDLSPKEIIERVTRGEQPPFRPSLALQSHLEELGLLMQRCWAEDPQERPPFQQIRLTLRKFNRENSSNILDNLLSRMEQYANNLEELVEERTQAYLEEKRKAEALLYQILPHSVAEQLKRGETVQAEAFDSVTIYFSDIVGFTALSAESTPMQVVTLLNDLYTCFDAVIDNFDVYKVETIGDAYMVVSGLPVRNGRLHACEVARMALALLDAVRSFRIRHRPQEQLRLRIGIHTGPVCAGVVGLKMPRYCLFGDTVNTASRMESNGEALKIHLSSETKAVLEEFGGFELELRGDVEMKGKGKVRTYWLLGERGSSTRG
Experimental: All sequences were verified by full-length sequencing performed by ACGT DNA Sequencing Services (Wheeling, IL). The target cDNA was cloned into pJTI R4 CMV-TO MCS pA vector and then co-transfected with pJT1R4 Int vector into Jump-in™ T-Rex™ HEK293 cells for mammalian inducible expression using Jump-in™ T-Rex™ HEK293 kit and Lipofectamine LTX and Plus Reagent following manufacturer's protocols, as briefly described below.
Jump-in™ T-Rex™ HEK293 cells were plated in a BioCOAT® poly-D-lysine coated 6-well plate (Becton Dickinson, cat no. 354413) at 1 million cells/well in 2 mL culture medium and incubated for 18 h at 37° C. and 5% CO2 to 50-70% confluence. A cDNA mix was made in a 50 mL tube by adding 1.5 μg target cDNA, 1.5 μg pJT1R4 Int vector, 3 μL Plus Reagent, and 300 μL Opti-MEM I sequentially into the tube. A reagent mix was made in a separate 50 mL tube by adding 7.5 μL Lipofectamine LTX into 300 μL Opti-MEM I. The mixtures were incubated for 5 min at room temperature. The cDNA mix was then transferred into the reagent mix, mixed well, and incubated for additional 30 min at room temperature. A 500 μL of cDNA/Lipofectamine complex was then transferred to the wells of the cell plate in which the culture medium was changed to 2 mL of transfection medium containing DMEM with 4.5 g/L D-glucose supplemented with 10% FBS-HI and 20 mM HEPES. Transfected cells were cultured for 48 h in an incubator at 37° C. and 5% CO2. A subclone or pool from each overexpressing cell line was maintained in culture medium with the addition of 2 mg/mL G418 sulfate for the clone selection based on its built-in resistance to G418 sulfate for at least 3 weeks with medium changed every 2-3 days.
NPRs were overexpressed in T-Rex™ HEK293 cells following the induction with 300 ng/mL tetracycline in culture medium for 48 h. Induced cell lines in an exponential growth phase were treated with 0.05% trypsin-EDTA for a few seconds at room temperature, harvested in cell medium containing FBS to neutralize the trypsin, counted, and cryopreserved at the density of 2 million cells/mL in cell preservation solution containing FBS-HI with 5% DMSO. Cryopreserved cells were stored at −80° C. for a few days prior to transferring to a liquid nitrogen tank. Induced cell lines were then used for suspension assays to measure the activity of polypeptides to stimulate cGMP production in cGMP assays or for the preparation of cell membranes to measure the binding activity of polypeptides in competitive radioligand binding assays, as described below.
Test polypeptides were added starting at 10 μM concentration and at 10-fold decreasing concentrations to obtain 8-point concentration-response curves (i.e., 10 μM to 1 pM). The quantity of cGMP generated was detected using HTRF® technology and normalized to maximum amount produced by 100 nM amidated rat ANP and the minimum amount produced by assay buffer. Detailed steps are outlined below.
Stock solutions of test polypeptides (2 mM) dissolved in DMSO were first diluted 100-fold in assay buffer containing HBSS with Ca^2+ and Mg^2+, 5 mM HEPES, 0.5 mM IBMX, and 0.1% BSA or 0.1% casein (pH 7.4). The polypeptides were further serially diluted in 1:10 dilution steps in assay buffer containing 0.1% BSA or 0.1% casein to generate 8-point 2× working stock solutions ranging from 20 μM to […].
A 10 μL cell suspension containing 4000 cells was plated in Costar® half-area white opaque 96-well plates (Corning, cat no. 3693). Then 10 μL of assay buffer (basal activity), 200 nM of amidated rat ANP (maximum activity) or 2× working stock solutions of test polypeptides were transferred into the plate. Final concentration of DMSO in each well was 0.5%. The plate was shaken for 15 sec and then incubated for 40 min at room temperature.
The cGMP generated was measured using cGMP kit following the manufacturer's directions, as described below.

rat NPRA = biological target: T2, rat NPRA (Rattus norvegicus, UniProt P18910); assay: Rat NPRA cGMP activity assay (HTRF) in HEK293 cells overexpressing NPRA; format: cell-based
T2 construct: Full-Length cDNA Cloning and Generation of Cell Lines Overexpressing Natriuretic Peptide Receptors (NPRs); expressed in transfected cells; host or cells: Jump-in T-Rex HEK293 cells, pJTI R4 CMV-TO MCS pA vector, tetracycline induction
T2 sequence (P18910 29-1057): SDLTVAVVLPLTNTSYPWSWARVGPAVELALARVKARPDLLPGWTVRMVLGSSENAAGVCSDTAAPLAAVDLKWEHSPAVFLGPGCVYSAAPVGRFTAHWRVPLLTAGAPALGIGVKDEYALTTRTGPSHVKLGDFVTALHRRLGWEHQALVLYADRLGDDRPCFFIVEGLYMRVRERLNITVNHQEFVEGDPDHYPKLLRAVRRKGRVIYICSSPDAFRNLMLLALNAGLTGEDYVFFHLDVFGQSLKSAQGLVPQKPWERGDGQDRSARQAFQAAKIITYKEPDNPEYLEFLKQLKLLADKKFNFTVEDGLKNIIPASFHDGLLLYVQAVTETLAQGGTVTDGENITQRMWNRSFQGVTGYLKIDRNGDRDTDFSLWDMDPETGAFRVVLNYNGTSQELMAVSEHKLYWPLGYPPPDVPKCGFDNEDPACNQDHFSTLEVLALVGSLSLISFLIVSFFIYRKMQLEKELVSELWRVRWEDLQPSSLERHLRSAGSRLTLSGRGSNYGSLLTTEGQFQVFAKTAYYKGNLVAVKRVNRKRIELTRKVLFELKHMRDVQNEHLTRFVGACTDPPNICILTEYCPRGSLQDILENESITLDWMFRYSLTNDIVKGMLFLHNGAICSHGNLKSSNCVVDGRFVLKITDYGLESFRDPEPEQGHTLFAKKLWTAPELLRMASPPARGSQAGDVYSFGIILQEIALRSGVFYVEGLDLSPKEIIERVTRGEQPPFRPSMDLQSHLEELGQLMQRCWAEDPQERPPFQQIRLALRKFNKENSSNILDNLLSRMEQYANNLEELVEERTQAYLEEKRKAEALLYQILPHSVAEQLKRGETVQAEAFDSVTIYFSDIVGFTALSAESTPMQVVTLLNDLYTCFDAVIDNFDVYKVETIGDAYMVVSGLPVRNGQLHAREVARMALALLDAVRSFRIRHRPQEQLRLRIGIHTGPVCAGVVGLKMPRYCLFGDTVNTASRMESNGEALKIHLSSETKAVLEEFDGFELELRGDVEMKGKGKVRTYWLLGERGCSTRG
How it was run: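 cGMP measured by HTRF and scaled between buffer (minimum) and 100 nM amidated rat ANP (maximum). Polypeptides in 10-fold steps from 10 μM to 1 pM, 0.5% DMSO, 0.5 mM IBMX, 40 min at room temperature, on induced NPRA-overexpressing HEK293 cells.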

## {C20 diacid-γGlu}-EKEKEKGS[4Pal]RRSSCFGGRIDRIGHQSGLGCPSFRHGGPPS[Aib]KPPPK-NH2 (linker 14-30 via CH2) [Example 68]
Human NPRA; assay buffer with 0.1% BSA, read-out: cGMP Assay (EC50, pM) w/BSA hNPRA
  EC50: 96800 pM

## CC[C@H](C)[C@@H]1NC(=O)[C@H](CCCNC(=N)N)NC(=O)[C@H](CC(=O)O)NC(=O)[C@H]([C@@H](C)CC)NC(=O)[C@H](CCCNC(=N)N)NC(=O)[C@H](CCCCN)NC(=O)CNC(=O)[C@H](Cc2ccccc2)NC(=O)[C@@H](NC(=O)[C@H](CO)NC(=O)[C@H](CO)NC(=O)[C@H](CCCNC(=N)N)NC(=O)[C@@H]2CCCN2C(=O)[C@H](CCCCN)NC(=O)[C@H](CCC(=O)O)NC(=O)COCCOCCNC(=O)COCCOCCNC(=O)COCCOCCNC(=O)COCCOCCNC(=O)COCCOCCNC(=O)COCCOCCNC(=O)COCCOCCNC(=O)COCCOCCNC(=O)CNC(=O)[C@H](CCCCN)NC(=O)[C@H](CCC(=O)O)NC(=O)[C@H](CCCCN)NC(=O)[C@H](CCC(=O)O)NC(=O)[C@H](CCCCN)NC(=O)[C@H](CCC(=O)O)NC(=O)CC[C@H](NC(=O)CCCCCCCCCCCCCCCCCCC(=O)O)C(=O)O)CSCSC[C@@H](C(=O)N2CCC[C@H]2C(=O)N[C@@H](CO)C(=O)N[C@@H](Cc2ccccc2)C(=O)N[C@@H](CCCNC(=N)N)C(=O)N[C@@H](Cc2c[nH]cn2)C(=O)N[C@@H](CO)C(=O)NCC(=O)N[C@@H](CO)C(=O)N2CCC[C@H]2C(=O)N[C@@H](CO)C(=O)N[C@@H](CO)C(=O)NCC(=O)N[C@@H](C)C(=O)N2CCC[C@H]2C(=O)N2CCC[C@H]2C(=O)N2CCC[C@H]2C(=O)N[C@@H](CO)C(=O)NCC(N)=O)NC(=O)CNC(=O)[C@H](CC(C)C)NC(=O)CNC(=O)[C@H](CO)NC(=O)[C@H](Cc2ccc(O)cc2)NC(=O)[C@H](Cc2c[nH]cn2)NC(=O)CNC1=O [Example 126]
Human NPRA; cGMP Assay (EC50, pM) w/Casein hNPRA, assay buffer with 0.1% casein
  EC50: 1090 pM

## CC[C@H](C)[C@@H]1NC(=O)[C@H](CCCNC(=N)N)NC(=O)[C@H](CC(=O)O)NC(=O)[C@H]([C@@H](C)CC)NC(=O)[C@H](CCCNC(=N)N)NC(=O)[C@H](CCCCN)NC(=O)CNC(=O)[C@H](Cc2ccccc2)NC(=O)[C@@H](NC(=O)[C@H](CO)NC(=O)[C@H](CO)NC(=O)[C@H](CCCNC(=N)N)NC(=O)[C@H](CCCNC(=N)N)NC(=O)[C@H](Cc2ccncc2)NC(=O)[C@H](CO)NC(=O)COCCOCCNC(=O)COCCOCCNC(=O)COCCOCCNC(=O)COCCOCCNC(=O)COCCOCCNC(=O)COCCOCCNC(=O)COCCOCCNC(=O)COCCOCCNC(=O)CNC(=O)[C@H](CCCCN)NC(=O)[C@H](CCC(=O)O)NC(=O)[C@H](CCCCN)NC(=O)[C@H](CCC(=O)O)NC(=O)[C@H](CCCCN)NC(=O)[C@H](CCC(=O)O)NC(=O)CC[C@H](NC(=O)CCCCCCCCCCCCCCCCCCC(=O)O)C(=O)O)CSCSC[C@@H](C(=O)N2CCC[C@H]2C(=O)N[C@@H](CO)C(=O)N[C@@H](Cc2ccccc2)C(=O)N[C@@H](CCCNC(=N)N)C(=O)N[C@@H](Cc2c[nH]cn2)C(=O)NCC(=O)N[C@@H](CO)C(=O)N2CCC[C@H]2C(=O)N[C@@H](CO)C(=O)N[C@@H](CO)C(=O)NCC(=O)N[C@@H](C)C(=O)N2CCC[C@H]2C(=O)N2CCC[C@H]2C(=O)N2CCC[C@H]2C(=O)N[C@@H](CO)C(N)=O)NC(=O)CNC(=O)[C@H](CC(C)C)NC(=O)CNC(=O)[C@H](CO)NC(=O)[C@H](Cc2ccc(O)cc2)NC(=O)[C@H](Cc2c[nH]cn2)NC(=O)CNC1=O [Example 107]
Rat NPRA; cGMP Assay (EC50, pM) w/BSA rNPRA, assay buffer with 0.1% BSA
  EC50: 149000 pM
Rat NPRA; cGMP Assay (EC50, pM) w/Casein rNPRA, assay buffer with 0.1% casein
  EC50: 3770 pM
